Experimental findings from ChEMBL document CHEMBL4680278 (J Med Chem, 2020) are described below.

The experiment concerns the target G-protein coupled receptor 55 (Homo sapiens, UniProt Q9Y2T6). Put plainly: Activation of recombinant human GPR55 expressed in HEK293 cells assessed as increase in [35S]-GTPgammaS stimulation incubated for 60 min by scintillation counting method. It is filed as functional, cell-based.

The structures appear in SMILES notation.

Chain of G-protein coupled receptor 55 (Q9Y2T6 whole entry): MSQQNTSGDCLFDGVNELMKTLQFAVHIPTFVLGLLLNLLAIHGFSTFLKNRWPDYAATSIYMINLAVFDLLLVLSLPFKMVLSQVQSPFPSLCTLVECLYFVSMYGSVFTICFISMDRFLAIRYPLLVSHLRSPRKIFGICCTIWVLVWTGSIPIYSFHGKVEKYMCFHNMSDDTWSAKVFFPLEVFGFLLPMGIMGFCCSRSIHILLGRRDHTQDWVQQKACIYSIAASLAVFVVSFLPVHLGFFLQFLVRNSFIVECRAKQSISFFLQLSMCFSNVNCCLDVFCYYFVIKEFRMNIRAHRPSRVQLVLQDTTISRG

In general, EC50 refers to the concentration that produces a half-maximal response. As for `C=C(C)[C@@H]1CCC(C)=C[C@H]1c1c(O)cc(O)cc1CCCCC`, the EC50 was 2 nM.

`C=C(C)[C@@H]1CCC(C)=C[C@H]1c1c(C)cc(O)cc1O`: the half-maximal effective concentration (EC50) amounted to 2 nM.
